Source: PMC4077311, “A Huge PVDF Adsorption Difference Between Resveratrol and ε-Viniferin Allows to Quantitatively Purify Them and to Assess Their Anti-Tyrosinase Property” (Chromatographia, 2014)

Target: Mushroom tyrosinase (Agaricus bisporus, UniProt C7FF04)
Assay: Tyrosinase L-DOPA oxidase inhibition activity
Description: Then, 40 μL L-DOPA (2.5 mM) and 80 μL phosphate buffer were added to the solution. Optical density (OD) of each assay, relative to the control, was measured at 492 nm by using a microplate reader (Tecan® Infinite M200 spectrophotometer).
Results expression: Inhibition of enzyme activity by each sample is expressed as % inhibition compared to the control and represented by the following equation: [1 − (ODsample × ODcontrol^−1)] × 100.

Chain of Mushroom tyrosinase (G1K3P4 entry or part of it): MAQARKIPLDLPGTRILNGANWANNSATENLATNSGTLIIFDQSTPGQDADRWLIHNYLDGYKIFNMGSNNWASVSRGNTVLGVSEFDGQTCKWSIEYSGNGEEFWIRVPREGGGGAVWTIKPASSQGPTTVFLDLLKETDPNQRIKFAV
Chain of Mushroom tyrosinase (C7FF04 1-392): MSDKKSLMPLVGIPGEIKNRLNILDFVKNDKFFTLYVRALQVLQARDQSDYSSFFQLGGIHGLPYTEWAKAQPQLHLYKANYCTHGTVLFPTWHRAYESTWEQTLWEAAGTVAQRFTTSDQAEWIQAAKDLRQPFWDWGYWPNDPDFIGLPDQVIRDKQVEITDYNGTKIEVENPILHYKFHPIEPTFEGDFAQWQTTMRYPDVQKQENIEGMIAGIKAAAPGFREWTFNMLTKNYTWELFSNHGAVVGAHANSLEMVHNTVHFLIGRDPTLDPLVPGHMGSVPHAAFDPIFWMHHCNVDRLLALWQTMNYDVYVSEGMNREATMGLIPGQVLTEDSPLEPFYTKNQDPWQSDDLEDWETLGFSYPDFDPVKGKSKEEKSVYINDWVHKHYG

Structure (SMILES)	Tyrosinase inhibitory activity in words
Oc1ccc(C=Cc2cc(O)cc3c2[C@H](c2cc(O)cc(O)c2)[C@@H](c2ccc(O)cc2)O3)cc1 [trans-ε-Viniferin 2, 5-[(2S, 3S)-6-hydroxy-2-(4-hydroxyphenyl)-4-(4-hydroxystyryl)-2,3-dihydrobenzofuran-3-yl]benzene-1,3-diol]	the most active tyrosinase inhibitor ever tested by us
Oc1ccc(/C=C/c2cc(O)cc(O)c2)cc1 [trans-Resveratrol 1, (E)-5-(4-hydroxystyryl)benzene-1,3-diol]	moderate inhibitory activity
